According to patent US8440700B2, “Substituted aryloxazoles and their use” (Bayer Intellectual Property GmbH, priority 2007, dated 2013):

Columns and labels:
Type in all cases: cell-based
adenosine A1 receptor = target: T1, adenosine A1 receptor (Homo sapiens, UniProt P30542); test: Indirect determination of adenosine agonism by way of gene expression (luciferase, CHO cells), A1; settings: CHO cells stably transfected with A1 receptor cDNA; 1 μM forskolin; 50% inhibition of luciferase answer
T1 construct: expressed in transfected cells; host or cells: CHO (Chinese Hamster Ovary)
T1 sequence (P30542 1-326): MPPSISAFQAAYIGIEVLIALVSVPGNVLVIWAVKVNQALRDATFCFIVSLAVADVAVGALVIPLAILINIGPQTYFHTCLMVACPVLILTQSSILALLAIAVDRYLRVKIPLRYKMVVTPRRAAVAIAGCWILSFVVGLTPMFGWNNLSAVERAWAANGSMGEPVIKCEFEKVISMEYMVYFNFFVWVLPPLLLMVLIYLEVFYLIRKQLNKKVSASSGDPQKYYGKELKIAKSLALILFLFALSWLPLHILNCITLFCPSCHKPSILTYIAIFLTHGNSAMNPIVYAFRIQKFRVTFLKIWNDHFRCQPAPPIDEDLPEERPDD
Source text: (§1) B-1. Indirect Determination of the Adenosine Agonism by Way of Gene Expression
(§2) Cells of the CHO (Chinese Hamster Ovary) permanent cell line are transfected stably with the cDNA for the adenosine receptor subtypes A1, A2a and A2b. The adenosine A1 receptors are coupled to the adenylate cyclase by way of Gi proteins, while the adenosine A2a and A2b receptors are coupled by way of Gs proteins. In correspondence with this, the formation of cAMP in the cell is inhibited or stimulated, respectively. After that, expression of the luciferase is modulated by way of a cAMP-dependent promoter. The luciferase test is optimized, with the aim of high sensitivity and reproducibility, low variance and good suitability for implementation on a robot system, by varying several test parameters, such as cell density, duration of the growth phase and the test incubation, forskolin concentration and medium composition. The following test protocol is used for pharmacologically characterizing cells and for the robot-assisted substance screening:
(§3) The stock cultures are grown, at 37° C. and under 5% CO2, in DMEM/F12 medium containing 10% FCS (foetal calf serum) and in each case split 1:10 after 2-3 days. The test cultures are seeded in 384-well plates with 2000 cells per well and grown at 37° C. for approx. 48 hours. The medium is then replaced with a physiological sodium chloride solution (130 mM sodium chloride, 5 mM potassium chloride, 2 mM calcium chloride, 20 mM HEPES, 1 mM magnesium chloride hexahydrate, 5 mM sodium bicarbonate, pH 7.4). The substances to be tested, which are dissolved in DMSO, are pipetted into the test cultures (maximum final concentration of DMSO in the test mixture: 0.5%) in a dilution series of from 5×10^−11M to 3×10^−6M (final concentration). 10 minutes later, forskolin is added to the A1 cells and all the cultures are subsequently incubated at 37° C. for four hours. After that, 35 μl of a solution which is composed of 50% lysis reagent (30 mM disodium hydrogenphosphate, 10% glycerol, 3% TritonX100, 25 mM TrisHCl, 2 mM dithiotreitol (DTT), pH 7.8) and 50% luciferase substrate solution (2.5 mM ATP, 0.5 mM luciferin, 0.1 mM coenzyme A, 10 mM tricine, 1.35 mM magnesium sulphate, 15 mM DTT, pH 7.8) are added to the test cultures, which are shaken for approx. 1 minute and the luciferase activity is measured using a camera system. The EC50 values are determined, i.e., the concentrations at which 50% of the luciferase answer is inhibited in the case of the A1 cell, and, respectively, 50% of the maximum stimulation with the corresponding substance is achieved in the case of the A2b and A2a cells. […] Pharmacol., 357 (1998), 1-9).
(§4) Table 18 below lists the EC50 values of representative working examples for the receptor stimulation on adenosine A1, A2a and A2b receptor subtypes: […]

adenosine A2a receptor = target: T2, adenosine A2a receptor (Homo sapiens, UniProt P29274); test: Indirect determination of adenosine agonism by way of gene expression (luciferase, CHO cells), A2a; settings: CHO cells stably transfected with A2a receptor cDNA; 50% of maximum luciferase stimulation
T2 construct: expressed in transfected cells; host or cells: CHO (Chinese Hamster Ovary)
Source text: as §1, §2, §3, §4

adenosine A2b receptor = target: T3, adenosine A2b receptor (Homo sapiens, UniProt P29275); test: Indirect determination of adenosine agonism by way of gene expression (luciferase, CHO cells), A2b; settings: CHO cells stably transfected with A2b receptor cDNA; 50% of maximum luciferase stimulation
T3 construct: expressed in transfected cells; host or cells: CHO (Chinese Hamster Ovary)
T3 sequence (P29275 1-332): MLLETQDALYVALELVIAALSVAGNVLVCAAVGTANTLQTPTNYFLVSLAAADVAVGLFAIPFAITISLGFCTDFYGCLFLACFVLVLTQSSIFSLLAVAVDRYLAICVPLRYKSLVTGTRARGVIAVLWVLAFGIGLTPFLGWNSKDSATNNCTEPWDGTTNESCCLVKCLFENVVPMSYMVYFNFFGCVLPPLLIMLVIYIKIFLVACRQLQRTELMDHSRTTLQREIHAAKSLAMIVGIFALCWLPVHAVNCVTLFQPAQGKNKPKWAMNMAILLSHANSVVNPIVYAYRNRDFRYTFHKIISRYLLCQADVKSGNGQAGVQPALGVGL
Source text: as §1, §2, §3, §4

T2 sequence (P29274 whole entry): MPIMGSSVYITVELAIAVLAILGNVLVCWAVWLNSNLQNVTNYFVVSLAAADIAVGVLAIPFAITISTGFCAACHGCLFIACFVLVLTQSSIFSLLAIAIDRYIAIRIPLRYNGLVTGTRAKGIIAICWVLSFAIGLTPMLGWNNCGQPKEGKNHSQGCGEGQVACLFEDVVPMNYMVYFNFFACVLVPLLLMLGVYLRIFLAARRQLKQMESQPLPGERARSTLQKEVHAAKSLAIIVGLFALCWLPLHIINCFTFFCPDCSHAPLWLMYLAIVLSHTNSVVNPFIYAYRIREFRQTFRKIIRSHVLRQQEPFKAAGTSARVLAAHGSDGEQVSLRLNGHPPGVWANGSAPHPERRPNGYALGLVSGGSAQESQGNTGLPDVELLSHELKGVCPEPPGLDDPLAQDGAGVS

Work on `C[C@H](O)COc1ccc(-c2c(C#N)c(N)nc(SCc3coc(-c4ccc(Cl)cc4)n3)c2C#N)cc1` [Example 106] yielded an EC50 (adenosine A1 receptor) of 0.3 nM, an EC50 (adenosine A2a receptor) of 318 nM and an EC50 (adenosine A2b receptor) of 48 nM.
With `N#Cc1c(SCc2coc(-c3ccc(Cl)cc3)n2)nc(N2CCCC2)c(C#N)c1-c1ccc(OCCO)cc1` [Example 116, 2-({[2-(4-Chlorophenyl)-1,3-oxazol-4-yl]methyl}sulfanyl)-4-[4-(2-hydroxyethoxy)phenyl]-6-(pyrrolidin-1-yl)pyridine-3,5-dicarbonitrile] the EC50 (adenosine A1 receptor) was 0.4 nM and the EC50 (adenosine A2b receptor) was 698 nM.
In the case of `N#Cc1c(N)nc(OCc2coc(-c3ccc(Cl)cc3)n2)c(C#N)c1-c1ccc(OCCO)cc1` [Example 110, 2-Amino-6-{[2-(4-chlorophenyl)-1,3-oxazol-4-yl]methoxy}-4-[4-(2-hydroxyethoxy)phenyl]pyridine-3,5-dicarbonitrile], the EC50 (adenosine A1 receptor) is reported as 0.3 nM, the EC50 (adenosine A2a receptor) is reported as 497 nM and the EC50 (adenosine A2b receptor) is reported as 95 nM.
`N#Cc1c(N)nc(SCc2coc(-c3ccc(F)c(Cl)c3)n2)c(C#N)c1-c1ccc(OCCO)cc1` [Example 10] showed an EC50 (adenosine A1 receptor) of 0.5 nM, an EC50 (adenosine A2a receptor) of 1130 nM and an EC50 (adenosine A2b receptor) of 922 nM.
Compound `N#Cc1c(SCc2coc(-c3ccc(Cl)cc3)n2)nc(N2CC(O)C2)c(C#N)c1-c1ccc(OCCO)cc1` [Example 128] has an EC50 (adenosine A1 receptor) of 0.1 nM, an EC50 (adenosine A2a receptor) of 1050 nM and an EC50 (adenosine A2b receptor) of 237 nM.
`COc1ccc(-c2nc(CSc3nc(N)c(C#N)c(-c4ccc(OC[C@H](O)CO)cc4)c3C#N)c(C)o2)cc1` [Example 66] was tested, and the EC50 (adenosine A1 receptor) was 0.9 nM, the EC50 (adenosine A2a receptor) was 575 nM and the EC50 (adenosine A2b receptor) was 370 nM.
Work on `N#Cc1c(N)nc(SCc2coc(-c3ccc(F)cc3)n2)c(C#N)c1-c1ccc(OC[C@H](O)CO)cc1` [Example 101] yielded an EC50 (adenosine A1 receptor) of 0.4 nM, an EC50 (adenosine A2a receptor) of 72 nM and an EC50 (adenosine A2b receptor) of 226 nM.
`N#Cc1c(N)nc(OCc2coc(-c3ccc(F)c(F)c3)n2)c(C#N)c1-c1ccc(OCCO)cc1` [Example 114] showed an EC50 (adenosine A1 receptor) of 0.2 nM, an EC50 (adenosine A2a receptor) of 1970 nM and an EC50 (adenosine A2b receptor) of 969 nM.
`N#Cc1c(SCc2coc(-c3ccc(Cl)cc3)n2)nc(N2CCC2)c(C#N)c1-c1ccc(OCCO)cc1` [Example 126] was tested, and the EC50 (adenosine A1 receptor) was 0.5 nM, the EC50 (adenosine A2a receptor) was 684 nM and the EC50 (adenosine A2b receptor) was 78 nM.
`N#Cc1c(N)nc(SCc2ncoc2-c2ccc(Cl)cc2)c(C#N)c1-c1ccc(OC[C@@H](O)CO)cc1` [Example 93] was tested, and the EC50 (adenosine A1 receptor) was 8.9 nM, the EC50 (adenosine A2a receptor) was 522 nM and the EC50 (adenosine A2b receptor) was 336 nM.
Work on `Cc1oc(-c2ccc(Cl)cc2)nc1CSc1nc(N)c(C#N)c(-c2ccc(OC[C@@H](O)CO)cc2)c1C#N` [Example 60] yielded an EC50 (adenosine A1 receptor) of 0.3 nM and an EC50 (adenosine A2b receptor) of 236 nM.
For `Cc1cc(-c2nc(CSc3nc(N)c(C#N)c(-c4ccc(OC[C@H](O)CO)cc4)c3C#N)co2)ccc1Cl` [Example 80], the EC50 (adenosine A1 receptor) was 0.8 nM, the EC50 (adenosine A2a receptor) was 461 nM and the EC50 (adenosine A2b receptor) was 89 nM.
Work on `N#Cc1c(NCCO)nc(OCc2coc(-c3ccc(Cl)cc3)n2)c(C#N)c1-c1ccc(OCCO)cc1` [Example 129] yielded an EC50 (adenosine A1 receptor) of 0.4 nM.
`N#Cc1c(NC[C@@H](O)CO)nc(SCc2coc(-c3ccc(Cl)cc3)n2)c(C#N)c1-c1ccc(OCCO)cc1` [Example 119] was tested, and the EC50 (adenosine A1 receptor) was 0.3 nM and the EC50 (adenosine A2a receptor) was 1950 nM.
Work on `COC(=O)c1ccc(-c2nc(CSc3nc(N)c(C#N)c(-c4ccc(OC[C@@H](O)CO)cc4)c3C#N)c(C)o2)cc1` [Example 57] yielded an EC50 (adenosine A1 receptor) of 0.2 nM, an EC50 (adenosine A2a receptor) of 525 nM and an EC50 (adenosine A2b receptor) of 44 nM.
`N#Cc1c(N)nc(SCc2coc(-c3ccc(Cl)cc3)n2)c(C#N)c1-c1ccc(OC[C@H](O)CO)cc1` [Example 49, 2-Amino-6-({[2-(4-chlorophenyl)-1,3-oxazol-4-yl]methyl}sulfanyl)-4-(4-{[(2R)-2,3-dihydroxypropyl]oxy}phenyl)pyridine-3,5-dicarbonitrile] was tested, and the EC50 (adenosine A1 receptor) was 0.4 nM, the EC50 (adenosine A2a receptor) was 300 nM and the EC50 (adenosine A2b receptor) was 100 nM.
`N#Cc1c(OCc2coc(-c3ccc(Cl)cc3)n2)nc(N2CC(O)C2)c(C#N)c1-c1ccc(OCCO)cc1` [Example 130] showed an EC50 (adenosine A1 receptor) of 0.6 nM and an EC50 (adenosine A2b receptor) of 245 nM.
`Cc1cc(-c2nc(CSc3nc(N)c(C#N)c(-c4ccc(OCCO)cc4)c3C#N)co2)ccc1F` [Example 31] was tested, and the EC50 (adenosine A1 receptor) was 0.9 nM, the EC50 (adenosine A2a receptor) was 467 nM and the EC50 (adenosine A2b receptor) was 315 nM.
`N#Cc1c(SCc2coc(-c3ccc(Cl)cc3)n2)nc(N2CC[C@@H](O)C2)c(C#N)c1-c1ccc(OCCO)cc1` [Example 127] gave an EC50 (adenosine A1 receptor) of 0.4 nM, an EC50 (adenosine A2a receptor) of 984 nM and an EC50 (adenosine A2b receptor) of 283 nM.
`Cc1oc(-c2ccc(C(=O)O)cc2)nc1CSc1nc(N)c(C#N)c(-c2ccc(OCC(C)(C)O)cc2)c1C#N` [Example 95, 4-{4-[({6-Amino-3,5-dicyano-4-[4-(2-hydroxy-2-methylpropoxy)phenyl]pyridin-2-yl}thio)methyl]-5-methyl-1,3-oxazol-2-yl}benzoic acid] was tested, and the EC50 (adenosine A1 receptor) was 0.5 nM.
With `N#Cc1c(NCCO)nc(SCc2coc(-c3ccc(Cl)cc3)n2)c(C#N)c1-c1ccc(OCCO)cc1` [Example 117] the EC50 (adenosine A1 receptor) was 0.2 nM, the EC50 (adenosine A2a receptor) was 1440 nM and the EC50 (adenosine A2b receptor) was 1090 nM.
`N#Cc1c(N)nc(SCc2coc(-c3ccc(F)cc3)n2)c(C#N)c1-c1ccc(OC[C@@H](O)CO)cc1` [Example 81] gave an EC50 (adenosine A1 receptor) of 0.3 nM, an EC50 (adenosine A2a receptor) of 64 nM and an EC50 (adenosine A2b receptor) of 20 nM.
`N#Cc1c(N)nc(SCc2coc(-c3ccc(F)c(F)c3)n2)c(C#N)c1-c1ccc(OCCO)cc1` [Example 11] was tested, and the EC50 (adenosine A1 receptor) was 0.3 nM, the EC50 (adenosine A2a receptor) was 703 nM and the EC50 (adenosine A2b receptor) was 845 nM.
For `Cc1oc(-c2ccc(F)cc2)nc1CSc1nc(N)c(C#N)c(-c2ccc(OC[C@@H](O)CO)cc2)c1C#N` [Example 50], the EC50 (adenosine A1 receptor) was 0.4 nM and the EC50 (adenosine A2b receptor) was 118 nM.
`Cc1oc(-c2ccccc2F)nc1CSc1nc(N)c(C#N)c(-c2ccc(OC[C@@H](O)CO)cc2)c1C#N` [Example 61] was tested, and the EC50 (adenosine A1 receptor) was 0.7 nM, the EC50 (adenosine A2a receptor) was 439 nM and the EC50 (adenosine A2b receptor) was 221 nM.
Compound `N#Cc1c(NCCO)nc(SCc2coc(-c3ccc(Cl)cc3)n2)c(C#N)c1-c1ccc(OCCO)c(F)c1` [Example 122, 2-({[2-(4-Chlorophenyl)-1,3-oxazol-4-yl]methyl}sulfanyl)-4-[3-fluoro-4-(2-hydroxyethoxy)phenyl]-6-[(2-hydroxyethyl)amino]pyridine-3,5-dicarbonitrile] has an EC50 (adenosine A1 receptor) of 4.1 nM and an EC50 (adenosine A2b receptor) of 2250 nM.
Work on `N#Cc1c(N)nc(SCc2coc(-c3ccc(Cl)cc3)n2)c(C#N)c1-c1ccc(OC[C@@H](O)CO)cc1` [Example 48, 2-Amino-6-({[2-(4-chlorophenyl)-1,3-oxazol-4-yl]methyl}sulfanyl)-4-(4-{[(2S)-2,3-dihydroxypropyl]oxy}phenyl)pyridine-3,5-dicarbonitrile] yielded an EC50 (adenosine A1 receptor) of 0.3 nM, an EC50 (adenosine A2a receptor) of 138 nM and an EC50 (adenosine A2b receptor) of 4.4 nM.
